Data reported in patent US10561638B2, “Methods for treating dependence” (Biotie Therapies, Inc., priority 2007, dated 2020).

Target: T1, bovine dopamine β-hydroxylase (Bos taurus, UniProt P15101)
T1 construct: Bovine DBH from adrenal glands was obtained from Sigma Chemical Co; purchased Sigma Chemicals (St Louis, Mo., USA); host or cells: bovine adrenal glands
T1 sequence (P15101 1-610): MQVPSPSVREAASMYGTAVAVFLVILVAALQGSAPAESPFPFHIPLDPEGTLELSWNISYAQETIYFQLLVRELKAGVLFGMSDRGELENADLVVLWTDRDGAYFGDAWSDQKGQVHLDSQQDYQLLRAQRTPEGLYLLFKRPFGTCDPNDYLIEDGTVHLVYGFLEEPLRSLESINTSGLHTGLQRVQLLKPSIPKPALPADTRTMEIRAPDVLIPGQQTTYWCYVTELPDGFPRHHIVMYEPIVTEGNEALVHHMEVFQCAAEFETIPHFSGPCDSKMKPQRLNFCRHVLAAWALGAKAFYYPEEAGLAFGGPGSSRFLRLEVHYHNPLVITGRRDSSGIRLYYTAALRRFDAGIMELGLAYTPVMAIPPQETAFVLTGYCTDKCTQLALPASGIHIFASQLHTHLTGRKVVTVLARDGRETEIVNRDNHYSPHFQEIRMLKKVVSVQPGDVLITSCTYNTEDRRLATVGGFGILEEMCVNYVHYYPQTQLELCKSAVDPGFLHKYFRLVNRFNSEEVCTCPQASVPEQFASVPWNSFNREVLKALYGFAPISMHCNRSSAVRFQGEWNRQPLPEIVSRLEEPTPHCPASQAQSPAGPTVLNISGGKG
Assay: DBH assay, conversion of tyramine to octopamine
Assay type: biochemical
Procedure: Bovine and human dopamine β-hydroxylase activity were assayed by measuring the conversion of tyramine to octopamine. Bovine adrenal dopamine β-hydroxylase was obtained from Sigma Chemicals (St Louis, Mo., USA) whereas human dopamine β-hydroxylase was purified from the culture medium of the neuroblastoma cell line SK-N-SH. The assay was performed at pH 5.2 and 32° C. in a medium containing 0.125 M NaAc, 10 mM fumarate, 0.5-2 μM CuSO4, 0.1 mg·ml^−1 catalase, 0.1 mM tyramine and 4 mM ascorbate. In a typical assay, 0.5-1 milliunits of enzyme were added to the reaction mixture and, subsequently, a substrate mixture containing catalase, tyramine and ascorbate was added to initiate the reaction (final volume of 200 μl). Samples were incubated with or without the appropriate concentration of nepicastat or Compound B at 37° C. for 30 to 40 minutes. The reaction was quenched by the stop solution containing 25 mM EDTA and 240 μM 3-hydroxytyramine (internal standard). The samples were analyzed for octopamine by reverse phase high pressure liquid chromatography (HPLC) using ultraviolet-detection at […]. The HPLC chromatography run was carried out at the flow rate of 1 ml·min^−1 using a LiChroCART 125-4 RP-18 column and isocratic elution with 10 mM acidic acid, 10 mM 1-heptane sulfonic acid, 12 mM tetrabutyl ammonium phosphate and 10% methanol. The remaining percent activity was calculated based on controls, corrected using internal standards and fitted to a non-linear four-parameter concentration-response curve.
DBH activity was assayed by measuring the conversion of tyramine to octopamine. […] The samples were analyzed for octopamine by reverse phase HPLC using UV detection at […]. The remaining percent activity was calculated based on controls (without inhibitor), corrected using internal standards and fitted to a non-linear 4-parameter concentration-response curve to obtain IC50 values.
An HPLC assay was used to measure DBH activity using tyramine and ascorbate as substrates. […] The samples (150 μl) were loaded to a Gilson autosampler and analyzed by HPLC using UV detection at 280 nm. […]

| SMILES | IC50 (0.1 mM tyramine, 4 mM ascorbate, pH 5.2) [nM] | potency of nepicastat relative to Compound B (bovine DBH) [fold] | potency of nepicastat relative to SKF-102698 (bovine enzyme) [fold] |
| --- | --- | --- | --- |
| Fc1cc(F)cc(Cn2cc[nH]c2=S)c1 [SKF-102698, reference compound] | 67 ± 4.2 |  |  |
| Cl.NCc1c[nH]c(=S)n1[C@H]1CCc2c(F)cc(F)cc2C1 [nepicastat, (S)-5-Aminomethyl-1-(5,7-difluoro-1,2,3,4-tetrahydronaphth-2-yl)-2,3-dihydro-2-thioxo-1H-imidazole hydrochloride] |  | 3 | 8 |
